Data on one compound can be found in paper PMC7132281 (Proceedings of the National Academy of Sciences of the …, 2020).

The target of the assay is T1, AtaC (Vnz_27310) (Streptomyces venezuelae, UniProt F2R7Z6, D269N).
T1 sequence (F2R7Z6 1-401 D269N): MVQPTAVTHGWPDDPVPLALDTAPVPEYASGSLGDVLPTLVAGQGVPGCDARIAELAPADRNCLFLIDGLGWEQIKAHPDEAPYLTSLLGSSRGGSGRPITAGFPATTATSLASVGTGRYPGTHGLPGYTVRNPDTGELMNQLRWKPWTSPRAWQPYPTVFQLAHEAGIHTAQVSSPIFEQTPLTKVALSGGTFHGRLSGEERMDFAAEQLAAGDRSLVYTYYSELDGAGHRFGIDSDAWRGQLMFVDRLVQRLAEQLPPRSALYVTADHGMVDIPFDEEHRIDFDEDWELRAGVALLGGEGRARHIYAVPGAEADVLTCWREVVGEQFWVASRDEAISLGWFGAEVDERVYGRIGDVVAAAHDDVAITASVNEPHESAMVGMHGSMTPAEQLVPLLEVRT
The assay can be described thus: ITC. It counts as binding.

Turning to `Nc1ncnc2c1ncn2[C@@H]1O[C@@H]2COP(=O)(O)O[C@H]3[C@@H](O)[C@H](n4cnc5c(N)ncnc54)O[C@@H]3COP(=O)(O)O[C@H]2[C@H]1O` [c-di-AMP], the dissociation constant (Kd) was 949 ± 360 nM.
